# Experimental data from patent publication US20250146012A1 (priority 2011, published 2025).
# Like-named read-outs stand apart in the source and are kept apart here.
# What was measured:
# [1] = system: wild-type cotton (Coker 130); experiment: Year 2 efficacy field trial, wild-type plots; format: in vivo, Gossypium hirsutum; conditions: 1× rate (0.5 lb/A), half plot each herbicide, at one post-emergence timing (Early, Mid, Late)
# Procedure: In year 2, efficacy testing was conducted with twelve events compared to non-transgenic, wild-type Coker 130. For this testing, paired plots were either sprayed or not sprayed. The plots were maintained weed-and insect-free using conventional control programs for the duration of the trial. For the plots that were sprayed, the following treatment applications were conducted (1) 0.5 lb/A dicamba applied PRE, Early POST, Mid POST and Late POST; (2) 1 lb/A dicamba applied PRE, Early POST, Mid POST and Late POST; (3) 2 lb/A dicamba applied PRE, Early POST, Mid POST and Late POST; (4) 0.5 lb/A glufosinate applied Early POST, Mid POST and Late POST: (5) 1 lb/A glufosinate applied Early POST, Mid POST and Late POST: 6) 2 lb/A glufosinate applied Early POST, Mid POST and Late POST; and 7) Control (unsprayed). Preemergence (PRE) is defined as immediately after cotton planting (within 24 hours); Early POST as 2-node cotton; Mid POST as 8-node cotton; and Late POST as 14 node cotton. […]
# At each rating time, the following observations were recorded: 1) percent necrosis or burn on the most affected leaves; 2) percent necrosis or burn on a whole-plant basis; 3) epinasty; and 4) any other relevant injury that was observed. […] Plots were harvested and recorded as lbs/plot of seedcotton and expressed as lb/acre of seedcotton.
# [2] = system: plants comprising the MON 88701 event
# Procedure: In year 2, efficacy testing was conducted with twelve events compared to non-transgenic, wild-type Coker 130. For this testing, paired plots were either sprayed or not sprayed. The plots were maintained weed-and insect-free using conventional control programs for the duration of the trial. For the plots that were sprayed, the following treatment applications were conducted (1) 0.5 lb/A dicamba applied PRE, Early POST, Mid POST and Late POST; (2) 1 lb/A dicamba applied PRE, Early POST, Mid POST and Late POST; (3) 2 lb/A dicamba applied PRE, Early POST, Mid POST and Late POST; (4) 0.5 lb/A glufosinate applied Early POST, Mid POST and Late POST: (5) 1 lb/A glufosinate applied Early POST, Mid POST and Late POST: 6) 2 lb/A glufosinate applied Early POST, Mid POST and Late POST; and 7) Control (unsprayed). Preemergence (PRE) is defined as immediately after cotton planting (within 24 hours); Early POST as 2-node cotton; Mid POST as 8-node cotton; and Late POST as 14 node cotton. For these efficacy field trials, there were three plots composed entirely of wild-type cotton (Coker 130). At each post-emergence timing (Early, Mid, Late), one-half of a plot was sprayed with the 1× rate (0.5 lb/A) of dicamba and one-half of the same plot was sprayed with the 1× rate (0.5 lb/A) of glufosinate. Each of the three plots received dicamba and glufosinate spray at one of the post-emergence timing spray applications (Early, Mid, Late).
# XR TeeJet® extended range flat spray tips with an 80-degree spray angle were used (TeeJet Technologies, Wheaton, IL). There were 2 nozzles per row (nozzles spaced at 15″ for 30″ rows, 19″ for 38″ rows and 20″ for 40″ rows). Nozzle size depended on sprayer speed and nozzle spacing; however, nozzle size was selected to result in a spray pressure of 25 to 35 PSI. Boom height was adjusted to allow for 50% spray overlap (which occurs at roughly 30″ above the top of the crop).
# At each rating time, the following observations were recorded: 1) percent necrosis or burn on the most affected leaves; 2) percent necrosis or burn on a whole-plant basis; 3) epinasty; and 4) any other relevant injury that was observed. Ratings were taken four days after each application and immediately prior to subsequent applications. […] Plots were harvested and recorded as lbs/plot of seedcotton and expressed as lb/acre of seedcotton.
# [3] = system: transgenic cotton events (eight events)
# Procedure: (§1) In year 1, efficacy testing was conducted with eight events compared to non-transgenic, wild-type Coker 130. For this testing, paired plots were sprayed with dicamba (Clarity®, BASF, Research Triangle Park, NC) and glufosinate (Ignite®, Bayer CropScience, Research Triangle Park, NC) or left unsprayed. The plots were maintained weed-and insect-free using conventional control programs for the duration of the trial. […] For plots that were sprayed, the following applications were conducted: dicamba was applied preemergence at 1 lb/A followed by glufosinate applied 1.09lb/A at the 2 node stage, followed by dicamba applied at 1 lb/A at the 5 node stage, followed by glufosinate applied 1.09 lb/A at the 8 node stage, followed by dicamba applied at 1 lb/A at the 12 node stage. Neither dicamba nor glufosinate were applied with surfactants, fertilizer additive, or other adjuvant. […] Plots were harvested and yield recorded as lbs/plot of seed cotton and expressed as lb/acre of seed cotton. […]
# [4] = system: non-transgenic, wild-type Coker 130; experiment: Year 1 efficacy field trial, wild-type control; format: in vivo, Gossypium hirsutum; conditions: sequential regimen: dicamba 1 lb/A preemergence, 5 node, 12 node; glufosinate 1.09 lb/A at 2 node and 8 node; FIG. 7
# Procedure: as §1
# [5] = system: plants comprising the MON 88701 event; format: in vivo, Gossypium hirsutum
# Procedure: In year 3, efficacy field testing of event MON 88701 was conducted to study the rate and timing of application of dicamba and/or glufosinate. […] The treatment and application timing are detailed in Table 2. […] The sprayer protocol was as described for year 2 efficacy field testing. Stand rating, visual injury rating (percent epinasty, percent necrosis), plant height and node number, 50-boll sampling, and yield determinations were as described for agronomic and efficacy field testing above.
Compound,survival of herbicide spray [1],"injury rating with increasing application rates of glufosinate ([2]; 0.5, 1, 2 lb/A glufosinate Early, Mid, Late POST, FIG. 5.B)","yield of seedcotton with increasing application rates of glufosinate ([2]; 0.5, 1, 2 lb/A glufosinate applied Early POST, Mid POST and Late POST, FIG. 4.B)","yield of seed cotton, paired sprayed and unsprayed events compared to unsprayed wild-type Coker 130 ([3]; sequential regimen: dicamba 1 lb/A preemergence, 5 node, 12 node, glufosinate 1.09 lb/A at 2 node and 8 node, FIG. 3)",survival of the spray regimen [4],"yield of seedcotton ([5]; all other treatment regimens of Table 2 (0.25-1 lb ai/A, four timings), FIG. 6)",injury rating with increasing application rates of dicamba ([2]; in vivo),yield of seedcotton with increasing application rates of dicamba ([2]; in vivo),"yield of seed cotton, paired sprayed and unsprayed events compared to unsprayed wild-type Coker 130 ([3]; in vivo)",yield of seedcotton ([5]; in vivo)
2-amino-4-(hydroxymethylphosphinyl)butanoic acid [glufosinate],did not survive,increased percentage of injury,nearly equivalent,no significant difference,did not survive,no yield loss,,,,
"COc1c(Cl)ccc(Cl)c1C(=O)O [dicamba, 3,6-dichloro-2-methoxybenzoic acid]",did not survive,,,,did not survive,,increased percentage of injury,nearly equivalent,no significant difference,no yield loss
